The species entered for data set [1] is Rattus norvegicus. As to the kind of experiment: Neuroprotective actvity against 6-OHDA-induced rat Parkinson's disease model assessed as improved locomotory actvity by open-field test. The class given is functional, organism-based. To be noted: dose 5-10 mg/kg.
Data set [2] can be described thus: Cardiotoxicity in Beagle dog at 30 to 300 mg/kg, po by telemetry analysis. The class given is toxicity, organism-based, Canis lupus familiaris. To be noted: in vivo, dose 30-300 mg/kg.

With `CC(=O)N1CCc2nc(N3CCC(Oc4ccc(F)cc4F)CC3)c(N[C@@H]3CCOC3)nc2C1`, the figures for the Activity result in data set [1] and in data set [2] were “Dose-dependent effect” and “Non-Toxic”, respectively.

The values above are taken from ChEMBL document CHEMBL4742392, “Tetrahydropyridopyrazine modulators of GPR6” (2019).
